Source: publication PMC7127491 (Bioorganic & Medicinal Chemistry, 2008)
“Also recorded” adds a separate entry of the source.

Columns and labels:
Assay type in all cases: cell-based
[1] = test system: HIV-1; experiment: Anti-HIV-1 activity, virus-induced cytopathicity in CEM cells
[2] = test system: HIV-2; experiment: Anti-HIV-2 activity, virus-induced cytopathicity in CEM cells
[3] = test system: normal diploid human fibroblasts (WI 38); experiment: Antiproliferation MTT assay
[4] = test system: all evaluated tumour cell lines (L1210, Molt4/C8, CEM, HeLa, MCF-7, MiaPaCa-2, SW 620, Hep G2); experiment: Cytostatic activity over the whole panel of evaluated cell lines; conditions: read-out: IC50 range on all the evaluated tumour cell lines
[5] = test system: influenza A (H3N2); experiment: microbe, parasite or virus in culture; conditions: H3N2, MDCK, read-out: EC50 against influenza A (H3N2)

Compound	inhibitory activity against HIV-1, in words [1]	inhibitory activity against HIV-2, in words [2]	cytotoxicity to human normal fibroblasts (WI 38), in words [3]	IC50 [4]	EC50 [5]
O=C1c2ccccc2C(=O)N1C/C=C\Cn1cc(C#CCCc2ccccc2)c(=O)[nH]c1=O [Compound 3, (Z)-1-[4′-(N-Phthalimido)-2′-butenyl]-5-(4″-phenylbutynyl)uracil]	marginal inhibitory activity; also recorded: slight activity	marginal inhibitory activity			
CCCCCc1ccc(C#Cc2cn(C/C=C/CN3C(=O)c4ccccc4C3=O)c(=O)[nH]c2=O)cc1 [Compound 14, (E)-1-[4′-(N-Phthalimido)-2′-butenyl]-5-(p-pentylphenylethynyl)uracil]	marginal inhibitory activity; also recorded: moderate activity	marginal inhibitory activity; also recorded: moderate activity	cytotoxic	4.3 to 39 µM	
O=C1c2ccccc2C(=O)N1C/C=C\Cn1cc(C#Cc2ccc(Br)cc2)c(=O)[nH]c1=O [Compound 4, (Z)-1-[4′-(N-Phthalimido)-2′-butenyl]-5-(p-bromophenylethynyl)uracil]	marginal inhibitory activity; also recorded: slight activity	marginal inhibitory activity			
CCCCCc1ccc(C#Cc2cn(C/C=C\CN3C(=O)c4ccccc4C3=O)c(=O)[nH]c2=O)cc1 [Compound 7, (Z)-1-[4′-(N-Phthalimido)-2′-butenyl]-5-(p-pentylphenylethynyl)uracil]			no cytotoxicity		
CCCCCCCCC#Cc1cn(C/C=C\CN2C(=O)c3ccccc3C2=O)c(=O)[nH]c1=O [Compound 2, (Z)-1-[4′-(N-Phthalimido)-2′-butenyl]-5-decynyluracil]					2.5 to 4 µM
